Assay results from ChEMBL document CHEMBL4130589, “Synthesis of Novel Selenides Bearing Benzenesulfonamide Moieties as Carbonic Anhydrase I, II, IV, VII, and IX Inhibitors” (ACS Med Chem Lett, 2017).

Target: Carbonic anhydrase 9 (Homo sapiens, UniProt Q16790)
Assay: Inhibition of recombinant human carbonic anhydrase 9 incubated for 15 mins by stopped flow CO2 hydrase assay

Compound | Ki [nM]
Cc1ccc(S(=O)(=O)N[C@H](C[Se]c2ccc(S(N)(=O)=O)cc2)Cc2ccccc2)cc1 | 2.4
NS(=O)(=O)c1ccc([Se]CC(O)COCc2ccccc2)cc1 (stereo not drawn) | 10.1
NS(=O)(=O)c1ccc([Se][Se]c2ccc(S(N)(=O)=O)cc2)cc1 | 2.7
CC(C)OCC(O)C[Se]c1ccc(S(N)(=O)=O)cc1 (stereo not drawn) | 15.9
Cc1ccc(S(=O)(=O)N[C@H](C[Se]c2ccc(S(N)(=O)=O)cc2)C(C)C)cc1 | 10.1
NS(=O)(=O)c1ccc([Se]CC(O)CBr)cc1 (stereo not drawn) | 6.5
CCCCC(O)C[Se]c1ccc(S(N)(=O)=O)cc1 (stereo not drawn) | 5.6
NS(=O)(=O)c1ccc([Se]C2CCCCC2O)cc1 (stereo not drawn) | 8.3
CC(C)[C@@H](C[Se]c1ccc(S(N)(=O)=O)cc1)NC(=O)OC(C)(C)C | 2.3
C=CCOCC(O)C[Se]c1ccc(S(N)(=O)=O)cc1 (stereo not drawn) | 11.9
N#C[Se]c1ccc(S(N)(=O)=O)cc1 | 9.3
C=C(C)[C@@H]1CCC(C)(O)C([Se]c2ccc(S(N)(=O)=O)cc2)C1 (stereo partly drawn) | 2.4
CC(C)[C@H](N)C[Se]c1ccc(S(N)(=O)=O)cc1 | 2.4
